Experimental findings from patent US20240116985A1, “STAPLED PEPTIDES AND METHODS THEREOF” (priority 2020, published 2024) are described below.

The EC50 is the concentration that produces a half-maximal response. Low values mean higher potency in that assay, high ones lower potency in that assay. One may read the chromatographic logD as a lipophilicity value derived from retention on a column. Read a low chromatographic logD as a more hydrophilic compound.

Data set [1] addresses T1, full-length B-Catenin (Uniprot ID P35222) (Homo sapiens, UniProt P35222).
T1 construct: 65 nM full-length B-Catenin (Uniprot ID P35222)
T1 sequence (P35222 1-781): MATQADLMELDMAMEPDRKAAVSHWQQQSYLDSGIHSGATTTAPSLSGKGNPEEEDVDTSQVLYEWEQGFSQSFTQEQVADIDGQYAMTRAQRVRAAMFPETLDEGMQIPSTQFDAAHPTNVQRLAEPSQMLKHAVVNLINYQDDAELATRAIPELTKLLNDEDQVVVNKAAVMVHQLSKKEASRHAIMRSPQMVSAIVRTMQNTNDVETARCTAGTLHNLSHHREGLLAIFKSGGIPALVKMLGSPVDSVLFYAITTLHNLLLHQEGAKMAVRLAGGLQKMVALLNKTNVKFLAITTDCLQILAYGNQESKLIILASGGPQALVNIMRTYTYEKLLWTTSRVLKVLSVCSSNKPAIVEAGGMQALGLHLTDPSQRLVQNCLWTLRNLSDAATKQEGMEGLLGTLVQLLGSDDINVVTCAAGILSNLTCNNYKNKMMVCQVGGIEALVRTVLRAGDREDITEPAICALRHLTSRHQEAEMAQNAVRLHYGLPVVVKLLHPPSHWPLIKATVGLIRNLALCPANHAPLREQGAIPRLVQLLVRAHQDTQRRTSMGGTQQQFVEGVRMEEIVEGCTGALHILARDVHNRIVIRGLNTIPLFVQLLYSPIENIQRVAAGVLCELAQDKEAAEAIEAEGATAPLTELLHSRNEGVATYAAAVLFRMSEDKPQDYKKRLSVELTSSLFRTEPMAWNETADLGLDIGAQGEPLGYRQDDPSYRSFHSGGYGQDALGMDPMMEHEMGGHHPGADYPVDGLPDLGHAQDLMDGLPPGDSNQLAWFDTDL
Kind of data set: Alphascreen binding assay (beta-catenin / biotin-TCF4 10-53). The method, boiled down: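 AlphaScreen (Ni-chelate beads) competition in 50 mM Tris pH 8.0, 250 mM NaCl with detergents and 0.1% BSA. Peptide titrated 10 uM–5 nM against 65 nM human β-catenin bound to 10 nM biotinylated TCF4 10-53, 15 min then 60 min with beads, both at 20 °C; 1:1 Hill-slope fit.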

Data set [2] in a line: CHI Log D procedure. Conditions: for CHI Log D: pH 7.4; for chromatographic logD: pH 7.4, CHI Log D. It is filed as physicochemical.

On to `CC(=O)N[C@@H](Cc1ccccc1)C(=O)N[C@@H](CC(=O)O)C(=O)N[C@@H](C)C(=O)N[C@]1(C)CCCCCCC=CCOC(=O)N2CC[C@@](C(=O)N[C@@H](Cc3ccccc3)C(=O)N[C@@H](Cc3c[nH]c4ccccc34)C(=O)N[C@@H](CCC(N)=O)C(N)=O)(C2)NC(=O)[C@H]([C@@H](C)O)NC(=O)[C@H](Cc2ccccc2)NC(=O)[C@H](C)NC(=O)[C@H](C)NC(=O)[C@H](CC(=O)O)NC(=O)[C@H](CC(=O)O)NC1=O` [I-222, Ac-Phe-Asp-Ala-R8-Asp-Asp-Ala-Ala-Phe-Thr-PyrS-Phe-Trp-Gln-NH2], for which the 50% effective concentration (EC50) in data set [1] is 6.58 µM. Moreover, the “CHI Log D” value in data set [2] is recorded as 1.34.
For `CC(=O)N[C@@H](Cc1ccccc1)C(=O)N[C@@H](CC(=O)O)C(=O)N[C@@H](C)C(=O)N[C@]1(C)CCCCCCC=CCOC(=O)N2CC[C@@](C(=O)N[C@@H](Cc3ccccc3)C(=O)N[C@@H](Cc3c[nH]c4ccccc34)C(=O)N[C@@H](CCC(N)=O)C(N)=O)(C2)NC(=O)[C@H]([C@@H](C)O)NC(=O)[C@H](Cc2ccccc2)NC(=O)[C@H](C)NC(=O)[C@H](C)NC(=O)[C@H](CC(=O)O)NC(=O)[C@H](CC(=O)O)NC1=O` [I-223, Ac-Phe-Asp-Ala-R8-Asp-Asp-Ala-Ala-Phe-Thr-PyrS-Phe-Trp-Gln-NH2], in data set [1], the concentration for a half-maximal effect (EC50) is 4.12 µM. For the same compound, in data set [2], the “CHI Log D” value is recorded as 1.401.
On the same counts, the results for `CC(=O)N[C@@H](Cc1ccccc1)C(=O)N[C@@H](CC(=O)O)C(=O)N[C@@H](C)C(=O)N[C@]1(C)CCCCCCC=CCOC(=O)N2CC[C@@](C(=O)N[C@@H](Cc3ccccc3)C(=O)N[C@@H](Cc3c[nH]c4ccccc34)C(=O)N[C@@H](CCC(N)=O)C(N)=O)(C2)NC(=O)[C@H]([C@@H](C)O)NC(=O)[C@H](Cc2ccccc2)NC(=O)[C@H](C)NC(=O)[C@H](C)NC(=O)[C@H](CC(=O)O)NC(=O)[C@H](CC(=O)O)NC1=O` [I-224, Ac-Phe-Asp-Ala-R8-Asp-Asp-Ala-Ala-Phe-Thr-PyrS-Phe-Trp-Gln-NH2] are 4.12 µM and 1.401.
In the case of `CC(=O)N[C@@H](Cc1ccccc1)C(=O)N[C@@H](CC(=O)O)C(=O)N[C@@H](C)C(=O)N[C@]1(C)CCCCCCC=CCOC(=O)N2CC[C@@](C(=O)N[C@@H](Cc3c(F)c(F)c(F)c(F)c3F)C(=O)N[C@@H](Cc3c[nH]c4ccccc34)C(=O)N[C@@H](CCC(N)=O)C(N)=O)(C2)NC(=O)[C@H](C(C)C)NC(=O)[C@H](Cc2ccccc2)NC(=O)[C@H](C)NC(=O)[C@H](C)NC(=O)[C@H](CC(=O)O)NC(=O)[C@H](CC(=O)O)NC1=O` [I-225, Ac-Phe-Asp-Ala-R8-Asp-Asp-Ala-Ala-Phe-Val-PyrS-Pff-Trp-Gln-NH2], the response in data set [1] was half-maximal at 7.63 µM (EC50). For the same compound, in data set [2], the “CHI Log D” value is 1.497.
On to `CC(=O)N[C@@H](Cc1ccccc1)C(=O)N[C@@H](CC(=O)O)C(=O)N[C@@H](C)C(=O)N[C@]1(C)CCCCCCC=CCOC(=O)N2CC[C@@](C(=O)N[C@@H](Cc3c(F)c(F)c(F)c(F)c3F)C(=O)N[C@@H](Cc3c[nH]c4ccccc34)C(=O)N[C@@H](CCC(N)=O)C(N)=O)(C2)NC(=O)[C@H](C(C)C)NC(=O)[C@H](Cc2ccccc2)NC(=O)[C@H](C)NC(=O)[C@H](C)NC(=O)[C@H](CC(=O)O)NC(=O)[C@H](CC(=O)O)NC1=O` [I-226, Ac-Phe-Asp-Ala-R8-Asp-Asp-Ala-Ala-Phe-Val-PyrS-Pff-Trp-Gln-NH2], for which the concentration giving a half-maximal response (EC50) in data set [1] amounted to 7.63 µM. Besides, the “CHI Log D” value in data set [2] was 1.497.
On the same counts, the results for `CC(=O)N1CCC[C@]12CC=CCCCC1(CCCC=CCCCCCC[C@@](C)(C(=O)N[C@@H](Cc3ccccc3)C(=O)N[C@@H](Cc3c[nH]c4ccccc34)C(=O)N[C@@H](CCC(N)=O)C(N)=O)NC(=O)[C@H](C(C)C)NC(=O)[C@H](Cc3ccccc3)NC(=O)[C@H](C)NC(=O)[C@H](C)NC(=O)[C@H](CCC(=O)O)NC(=O)[C@H](Cc3ccccn3)NC1=O)NC(=O)[C@H](C)NC(=O)[C@H](CC(=O)O)NC2=O` (stereo partly drawn) [I-229, Ac-PL3-Asp-Ala-B5-2pyrA-Glu-Ala-Ala-Phe-Val-S8-Phe-Trp-Gln-NH2] are 5.81 µM and 3.044.
In data set [1], `CC(=O)N1CCC[C@]12CC=CCCCC1(CCCC=CCCCCCC[C@@](C)(C(=O)N[C@@H](Cc3ccccc3)C(=O)N[C@@H](Cc3c[nH]c4ccccc34)C(=O)N[C@@H](CCC(N)=O)C(N)=O)NC(=O)[C@H](C(C)C)NC(=O)[C@H](Cc3ccccc3)NC(=O)[C@H](C)NC(=O)[C@H](C)NC(=O)[C@H](Cc3csc4ccccc34)NC(=O)[C@H](CC(=O)O)NC1=O)NC(=O)[C@H](C)NC(=O)[C@H](CC(=O)O)NC2=O` (stereo partly drawn) [I-231, Ac-PL3-Asp-Ala-B5-Asp-BztA-Ala-Ala-Phe-Val-S8-Phe-Trp-Gln-NH2] gave a half-maximal effective concentration (EC50) of 6.53 µM. Also, the chromatographic logD in data set [2] was 3.02.
On the same counts, the results for `CC(=O)N1CCC[C@]12CC=CCCCC1(CCCC=CCCCCCC[C@@](C)(C(=O)N[C@@H](Cc3ccccc3)C(=O)N[C@@H](Cc3c[nH]c4ccccc34)C(=O)N[C@@H](CCC(N)=O)C(N)=O)NC(=O)[C@H](C(C)C)NC(=O)[C@H](Cc3ccccc3)NC(=O)[C@H](C)NC(=O)[C@H](C)NC(=O)[C@H](Cc3ccc4ccccc4c3)NC(=O)[C@H](CC(=O)O)NC1=O)NC(=O)[C@H](C)NC(=O)[C@H](CC(=O)O)NC2=O` (stereo partly drawn) [I-232, Ac-PL3-Asp-Ala-B5-Asp-2NapA-Ala-Ala-Phe-Val-S8-Phe-Trp-Gln-NH2] are 7.64 µM and 3.04.
In data set [1], `CC(=O)N1CCC[C@]12CC=CCCCC1(CCCC=CCCCCCC[C@@](C)(C(=O)N[C@@H](Cc3ccccc3)C(=O)N[C@@H](Cc3c[nH]c4ccccc34)C(=O)N[C@@H](CCC(N)=O)C(N)=O)NC(=O)[C@H](C(C)C)NC(=O)[C@H](Cc3ccccc3)NC(=O)[C@H](C)NC(=O)[C@H](C)NC(=O)[C@H](Cc3c[nH]c4ccccc34)NC(=O)[C@H](CC(=O)O)NC1=O)NC(=O)[C@H](C)NC(=O)[C@H](CC(=O)O)NC2=O` (stereo partly drawn) [I-233, Ac-PL3-Asp-Ala-B5-Asp-Trp-Ala-Ala-Phe-Val-S8-Phe-Trp-Gln-NH2] displayed a half-maximal effective concentration (EC50) of 5.9 µM. This compound showed a chromatographic logD in data set [2] of 2.82.
In turn, `CC(=O)N1CCC[C@]12CC=CCCCC1(CCCC=CCCCCCC[C@@](C)(C(=O)N[C@@H](Cc3ccccc3)C(=O)N[C@@H](Cc3c[nH]c4ccccc34)C(=O)N[C@@H](CCC(N)=O)C(N)=O)NC(=O)[C@H](C(C)C)NC(=O)[C@H](Cc3cccc(C(F)(F)F)c3)NC(=O)[C@H](C)NC(=O)[C@H](C)NC(=O)[C@H](CC(=O)O)NC(=O)[C@H](CC(=O)O)NC1=O)NC(=O)[C@H](C)NC(=O)[C@H](CC(=O)O)NC2=O` (stereo partly drawn) [I-236, Ac-PL3-Asp-Ala-B5-Asp-Asp-Ala-Ala-3F3MeF-Val-S8-Phe-Trp-Gln-NH2] came in with an EC50 in data set [1] of 0.384 µM. Moreover, in data set [2], the “CHI Log D” value is 2.067.
The compound `CC(=O)N1CCC[C@]12CC=CCCCC1(CCCC=CCCCCCC[C@@](C)(C(=O)N[C@@H](Cc3ccccc3)C(=O)N[C@@H](Cc3c[nH]c4ccccc34)C(=O)N[C@@H](CCC(N)=O)C(N)=O)NC(=O)[C@H](C(C)C)NC(=O)[C@H](Cc3cccc(C(F)(F)F)c3)NC(=O)[C@H](C)NC(=O)[C@H](C)NC(=O)[C@H](CC(=O)O)NC(=O)[C@H](CC(=O)O)NC1=O)NC(=O)[C@H](C)NC(=O)[C@H](CC(=O)O)NC2=O` (stereo partly drawn) [I-237, Ac-PL3-Asp-Ala-B5-Asp-Asp-Ala-Ala-3F3MeF-Val-S8-Phe-Trp-Gln-NH2] registered an EC50 in data set [1] of 0.384 µM. Moreover, the “CHI Log D” value in data set [2] is recorded as 2.067.
The matching figures for `CC(=O)N1CCC[C@]12CC=CCCCC1(CCCC=CCCCCCC[C@@](C)(C(=O)N[C@@H](Cc3ccccc3)C(=O)N[C@@H](Cc3c[nH]c4ccccc34)C(=O)N[C@@H](CCC(N)=O)C(N)=O)NC(=O)[C@H](C(C)C)NC(=O)[C@H](Cc3ccc(C(F)(F)F)cc3)NC(=O)[C@H](C)NC(=O)[C@H](C)NC(=O)[C@H](CC(=O)O)NC(=O)[C@H](CC(=O)O)NC1=O)NC(=O)[C@H](C)NC(=O)[C@H](CC(=O)O)NC2=O` (stereo partly drawn) [I-240, Ac-PL3-Asp-Ala-B5-Asp-Asp-Ala-Ala-4F3MeF-Val-S8-Phe-Trp-Gln-NH2]: 3.47 µM and 2.074.
For `CC(=O)N1CCC[C@]12CC=CCCCC1(CCCC=CCCCCCC[C@@](C)(C(=O)N[C@@H](Cc3ccccc3)C(=O)N[C@@H](Cc3c[nH]c4ccccc34)C(=O)N[C@@H](CCC(N)=O)C(N)=O)NC(=O)[C@H](C(C)C)NC(=O)[C@H](Cc3ccc(C(F)(F)F)cc3)NC(=O)[C@H](C)NC(=O)[C@H](C)NC(=O)[C@H](CC(=O)O)NC(=O)[C@H](CC(=O)O)NC1=O)NC(=O)[C@H](C)NC(=O)[C@H](CC(=O)O)NC2=O` (stereo partly drawn) [I-241, Ac-PL3-Asp-Ala-B5-Asp-Asp-Ala-Ala-4F3MeF-Val-S8-Phe-Trp-Gln-NH2], in data set [1], the EC50 amounted to 3.47 µM. In addition, in data set [2], the “CHI Log D” value is on record as 2.074.
